Laboratory results reported in ChEMBL document CHEMBL1149500, “Binding of aminoglycosidic antibiotics to the oligonucleotide A-site model and 30S ribosomal subunit: Poisson-Boltzmann model, thermal denaturation, and fluorescence studies” (J Med Chem, 2006).

molecular target: Ribosomal RNA A-site; experiment: Binding affinity to bacterial ribosomal A site RNA oligonucleotide; format: nucleic-acid assay

Row | SMILES | Kd [µM]
1 | CN[C@@H]1[C@H](O)[C@@H](O[C@@H]2[C@@H](O)[C@H](O[C@H]3O[C@H](CN)CC[C@H]3N)[C@@H](N)C[C@H]2N)OC[C@]1(C)O [GENTAMICIN C] | 5.53
2 | NC[C@H]1O[C@H](O[C@H]2[C@H](O[C@@H]3O[C@H](CO)[C@@H](O)[C@H]3O)[C@@H](O)[C@H](N)C[C@@H]2N)[C@H](N)[C@@H](O)[C@@H]1O [RIBOSTAMYCIN] | 16.4
3 | NC[C@@H]1O[C@H](O[C@H]2[C@@H](O)[C@H](O[C@@H]3[C@@H](O)[C@H](N)C[C@H](N)[C@H]3O[C@H]3O[C@H](CO)[C@@H](O)[C@H](O)[C@H]3N)O[C@@H]2CO)[C@H](N)[C@@H](O)[C@@H]1O [PAROMOMYCIN] | 0.39
4 | CN[C@@H]1[C@@H](O)[C@@H](O[C@@H]2[C@@H](O)[C@H](O[C@H]3O[C@H]([C@@H](C)O)[C@@H](O)[C@H](O)[C@H]3N)[C@@H](N)C[C@H]2N)OC[C@]1(C)O [GENETICIN] | 14.5
5 | NC[C@H]1O[C@H](O[C@H]2[C@H](O)[C@@H](O)[C@H](N)C[C@@H]2N)[C@H](N)[C@@H](O)[C@@H]1O [NEAMINE] | 7.39
